The supplement of paper PMC6004109

Columns and labels:
Details in all cases: temperature: 37 °C
[1] = system: Saccharomyces cerevisiae ZIM 2566 (RPMI); test: FICI minimum (fractional inhibitory concentration index, Loewe) (dimensionless); higher = less synergy / more antagonism
Procedure, shortened: (§1)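 CLSI M27-A3 checkerboard broth microdilution of two-drug combinations against yeast strains, in RPMI for clinical isolates or YPD for C. glabrata ATCC 2001 and its deletion mutant. An inoculum of 3–5 × 10^3 cells/ml (100 µl) was added to 100 µl drug dilutions, incubated at 37 °C and read as background-subtracted OD600 at 48 h, in at least biological triplicates. The value is the minimum or maximum Loewe fractional inhibitory concentration index over the combination surface, summing MIC-combination/MIC-alone ratios (MIC50 or MIC90 by drug).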

[2] = system: Candida glabrata ZIM 2365 (RPMI); test: as above
Procedure, shortened: as §1

[3] = system: Saccharomyces cerevisiae ZIM 2260 (RPMI); test: as above
Procedure, shortened: as §1

[4] = system: Candida glabrata ZIM 2389 (RPMI); test: as above
Procedure, shortened: as §1

[5] = system: Candida glabrata ZIM 2344 (RPMI); test: as above
Procedure, shortened: as §1

[6] = system: Candida glabrata ZIM 2369 (RPMI); test: as above
Procedure, shortened: as §1

[7] = system: Saccharomyces cerevisiae ZIM 2247 (RPMI); test: as above
Procedure, shortened: as §1

[8] = system: Saccharomyces cerevisiae ZIM 2255 (RPMI); test: as above
Procedure, shortened: as §1

[9] = system: Saccharomyces cerevisiae ZIM 2269 (RPMI); test: as above
Procedure, shortened: as §1

[10] = system: Candida glabrata ZIM 2382 (RPMI); test: as above
Procedure, shortened: as §1

[11] = system: Candida glabrata ATCC 2001 (YPD); test: FICI maximum (fractional inhibitory concentration index, Loewe) (dimensionless); higher = less synergy / more antagonism
Procedure, shortened: as §1

[12] = system: Candida glabrata ATCC 2001 pdr1 deletion mutant (YPD); test: as above
Procedure, shortened: as §1

[13] = system: Candida glabrata ATCC 2001 (YPD); test: Bliss independence sum of statistically significant ΔE (measured minus predicted growth inhibition) over checkerboard surface (fraction (sum of ΔE; 1 = 100%)); higher = more synergy
[14] = system: Candida glabrata ATCC 2001 pdr1 deletion mutant (YPD); test: as above
[15] = system: Candida glabrata ATCC 2001 (YPD); test: FICI minimum (fractional inhibitory concentration index, Loewe) (dimensionless); higher = less synergy / more antagonism
Procedure, shortened: as §1

[16] = system: Candida glabrata ATCC 2001 pdr1 deletion mutant (YPD); test: as above
Procedure, shortened: as §1

Row | SMILES | FICI minimum [1] | FICI minimum [2] | FICI minimum [3] | FICI minimum [4] | FICI minimum [5] | FICI minimum [6] | FICI minimum [7] | FICI minimum [8] | FICI minimum [9] | FICI minimum [10] | FICI maximum [11] | FICI maximum [12] | Bliss independence sum [13] | Bliss independence sum [14] | FICI minimum [15] | FICI minimum [16]
1 | CN(Cc1cnc2nc(N)nc(N)c2n1)c1ccc(C(=O)N[C@@H](CCC(=O)O)C(=O)O)cc1 [methotrexate] + OC(Cn1cncn1)(Cn1cncn1)c1ccc(F)cc1F [fluconazole] | 1 | 1 | 1.01 | 0.505 | 0.505 | 1 | 1 | 1 | 0.656 | 1 |  |  |  |  |  | 
2 | CN(Cc1cnc2nc(N)nc(N)c2n1)c1ccc(C(=O)N[C@@H](CCC(=O)O)C(=O)O)cc1 [methotrexate] + C[C@@H]1[C@H](O)[C@@H](C)/C=C/C=C/C=C/C=C/C=C/C=C/C=C/[C@H](O[C@@H]2O[C@H](C)[C@@H](O)[C@H](N)[C@@H]2O)C[C@@H]2O[C@](O)(C[C@@H](O)C[C@@H](O)[C@H](O)CC[C@@H](O)C[C@@H](O)CC(=O)O[C@H]1C)C[C@H](O)[C@H]2C(=O)O [amphotericin B] | 1 | 1 | 1 | 1 | 0.656 | 1 | 1 | 0.516 | 1 | 1 |  |  |  |  |  | 
3 | C=CC[C@@H]1/C=C(\C)C[C@H](C)C[C@H](OC)[C@H]2O[C@@](O)(C(=O)C(=O)N3CCCC[C@H]3C(=O)O[C@H](/C(C)=C/[C@@H]3CC[C@@H](O)[C@H](OC)C3)[C@H](C)[C@@H](O)CC1=O)[C@H](C)C[C@@H]2OC [tacrolimus] + OC(Cn1cncn1)(Cn1cncn1)c1ccc(F)cc1F [fluconazole] | 0.135 | 1 | 0.135 | 0.253 | 0.25 | 0.5 | 0.126 | 0.156 | 0.255 | 0.5 |  |  |  |  |  | 
4 | C=CC[C@@H]1/C=C(\C)C[C@H](C)C[C@H](OC)[C@H]2O[C@@](O)(C(=O)C(=O)N3CCCC[C@H]3C(=O)O[C@H](/C(C)=C/[C@@H]3CC[C@@H](O)[C@H](OC)C3)[C@H](C)[C@@H](O)CC1=O)[C@H](C)C[C@@H]2OC [tacrolimus] + C[C@@H]1[C@H](O)[C@@H](C)/C=C/C=C/C=C/C=C/C=C/C=C/C=C/[C@H](O[C@@H]2O[C@H](C)[C@@H](O)[C@H](N)[C@@H]2O)C[C@@H]2O[C@](O)(C[C@@H](O)C[C@@H](O)[C@H](O)CC[C@@H](O)C[C@@H](O)CC(=O)O[C@H]1C)C[C@H](O)[C@H]2C(=O)O [amphotericin B] | 0.25 | 0.25 | 0.251 | 0.26 | 0.516 | 0.258 | 0.0638 | 0.0938 | 0.0825 | 0.251 |  |  |  |  |  | 
5 | COc1c(C)c2c(c(O)c1C/C=C(\C)CCC(=O)O)C(=O)OC2 [mycophenolic acid] + C[C@@H]1[C@H](O)[C@@H](C)/C=C/C=C/C=C/C=C/C=C/C=C/C=C/[C@H](O[C@@H]2O[C@H](C)[C@@H](O)[C@H](N)[C@@H]2O)C[C@@H]2O[C@](O)(C[C@@H](O)C[C@@H](O)[C@H](O)CC[C@@H](O)C[C@@H](O)CC(=O)O[C@H]1C)C[C@H](O)[C@H]2C(=O)O [amphotericin B] | 0.633 | 0.5 | 0.58 | 0.531 | 0.625 | 0.75 | 0.767 | 1 | 1.03 | 0.5 |  |  |  |  |  | 
6 | CC1(C)S[C@@H]2[C@H](NC(=O)[C@H](N)c3ccc(O)cc3)C(=O)N2[C@H]1C(=O)O [amoxicillin] + CCC(C)n1ncn(-c2ccc(N3CCN(c4ccc(OCC5COC(Cn6cncn6)(c6ccc(Cl)cc6Cl)O5)cc4)CC3)cc2)c1=O [itraconazole] | 1.01 | 0.562 | 1.01 | 1.01 | 0.0703 | 1.01 | 0.508 | 1.01 | 1 | 1.01 |  |  |  |  |  | 
7 | C=CC[C@@H]1/C=C(\C)C[C@H](C)C[C@H](OC)[C@H]2O[C@@](O)(C(=O)C(=O)N3CCCC[C@H]3C(=O)O[C@H](/C(C)=C/[C@@H]3CC[C@@H](O)[C@H](OC)C3)[C@H](C)[C@@H](O)CC1=O)[C@H](C)C[C@@H]2OC [tacrolimus] + CCC(C)n1ncn(-c2ccc(N3CCN(c4ccc(OCC5COC(Cn6cncn6)(c6ccc(Cl)cc6Cl)O5)cc4)CC3)cc2)c1=O [itraconazole] | 0.13 | 0.5 | 0.251 | 0.126 | 0.125 | 0.25 | 0.501 | 0.254 | 0.75 | 1 |  |  |  |  |  | 
8 | CN(Cc1cnc2nc(N)nc(N)c2n1)c1ccc(C(=O)N[C@@H](CCC(=O)O)C(=O)O)cc1 [methotrexate] + CCC(C)n1ncn(-c2ccc(N3CCN(c4ccc(OCC5COC(Cn6cncn6)(c6ccc(Cl)cc6Cl)O5)cc4)CC3)cc2)c1=O [itraconazole] | 1 | 0.505 | 1.08 | 1 | 1 | 1 | 0.505 | 1 | 1 | 1 |  |  |  |  |  | 
9 | COc1c(C)c2c(c(O)c1C/C=C(\C)CCC(=O)O)C(=O)OC2 [mycophenolic acid] + OC(Cn1cncn1)(Cn1cncn1)c1ccc(F)cc1F [fluconazole] | 1.01 | 1.02 | 0.66 | 1.01 | 1.01 | 1.01 | 2.02 | 2.5 | 1.01 | 1.01 | 2.5 | 2.12 | -2.6 | -3.21 | 1.06 | 1.03
10 | CC1(C)S[C@@H]2[C@H](NC(=O)[C@H](N)c3ccc(O)cc3)C(=O)N2[C@H]1C(=O)O [amoxicillin] + C[C@@H]1[C@H](O)[C@@H](C)/C=C/C=C/C=C/C=C/C=C/C=C/C=C/[C@H](O[C@@H]2O[C@H](C)[C@@H](O)[C@H](N)[C@@H]2O)C[C@@H]2O[C@](O)(C[C@@H](O)C[C@@H](O)[C@H](O)CC[C@@H](O)C[C@@H](O)CC(=O)O[C@H]1C)C[C@H](O)[C@H]2C(=O)O [amphotericin B] | 0.562 | 0.258 | 1.01 | 0.508 | 0.133 | 1.01 | 1.01 | 1.01 | 1.01 | 0.508 |  |  |  |  |  | 
